This is an account of results in patent US20030100769A1, “Cyclic amidine compounds” (priority 2000, published 2003).

SMILES strings stand for the structures.

The assay concerns the target T1, human α4β2 subtype of nicotinic acetylcholine receptors (Homo sapiens, UniProt P17787+P43681).
T1 construct: expressed in transfected cells; host or cells: Xenopus laevis oocytes injected with hnACh-R α4 and β2 cRNA (pSP64 polyA)
Put plainly: Agonist activities at human α4β2 subtype of nicotinic acetylcholine receptors expressed in Xenopus oocytes (membrane potential holding method). It counts as cell-based. The conditions noted are these: for EC50: held at −50 mV, calculated in comparison with the reaction with 10 μM acetylcholine (100%), read-out: Agonist activity (ED50). Here is the method:
The agonist effect in human α4β2 subtype of nicotinic acetylcholine receptors are examined by using human nicotinic acetylcholine receptors prepared in oocytes of Xenopus laevis, which is injected with cRNA from the corresponding cloning cDNA of human α4 and β2 subunits of nicotinic acetylcholine receptors, and to measure the expression of the electric response by adding the test compounds to perfusion solution by means of membrane potential holding method.
Agonist Activities at Human α4β2 Subtype of Nicotinic Acetylcholine Receptors
(1) Preparation of cRNA of Human α4β2 Subtype of Nicotinic Acetylcholine Receptors
The obtained hnACh-R α4 cDNA and hnACh-R β2 cDNA were inserted to the cRNA expression vector (pSP64 polyA) having SP6 RNA promoter to construct hnACh-R α4/pSP64 polyA and hnACh-R β2/pSP64 polyA, respectively. After cutting from expression vector by restriction enzyme (EcoRI), transcription was performed by affecting SP6 RNA polymerase in the presence of cap analogues to obtain hnACh-R α4 cRNA and hnACh-R β2 cRNA, respectively.
(2) Expression of Human α4β2 Subtype Nicotinic Acetylcholine Receptors in Xenopus Oocytes
Oocytes were purchased from Kitanihonseibutsukyohzai Co., Ltd., which were already enucleated from Xenopus laevis, and used in this experiment.
The oocytes were treated with collagenase (Sigma type I; 1 mg/ml) in calcium-free modified Birth's solution (88 mM of NaCl, 1 mM of KCl, 2.4 mM of NaHCO3, 0.82 mM of MgSO4, 15 mM of HEPES, pH 7.6) under gently stirring at room temperature for 90 minutes, and washed out the enzyme from the tissue. Then, oocytes were separated from ovarian follicle by tweezers, and isolated oocytes were placed in antibiotics containing modified Birth's solution (88 mM of NaCl, 1 mM of KCl, 2.4 mM of NaHCO3, 0.82 mM of MgSO4, 15 mM of HEPES, pH 7.6, and 0.1 v/v % of mixture solution containing of penicillin and streptomycin for incubation; Sigma Co.). […] In oocytes, heterogeneous quintuple [(α4)2(β2)3] was composed by translation of injected cRNAs, and ion channel receptors were constructed on cell membrane.
(3) Agonist Activities at Human α4β2 Subtype of Nicotinic Acetylcholine Receptors
The recordings of responses at human α4β2 subtype of nicotinic acetylcholine receptors by means of membrane potential holding method were performed as follow. […] Test compounds were added to the perfusion solution, and recorded the peak strength of induced inward current. In order to normalize the responses of test compounds, the responses with acetylcholine (Ach) were recorded before and after application of the test compounds. Generally in the oocytes just after isolated, the response of intrinsic muscarinic acetylcholine receptors, which is inward current caused by activation of calcium dependence chloride ion channels with increase of the intracellular calcium concentration by stimulation of receptors, is observed. […] Therefore, the responses observed in oocytes with injection of hnACh-R α4 cRNA and hnACh-R β2 cRNA, i.e., the inward current induced by the intracellular influx of sodium ion according to the stimulation of receptors, would be the freshly observed responses of human α4β2 subtype nicotinic acetylcholine receptors.

T1 sequence (P43681 29-627 limits assumed): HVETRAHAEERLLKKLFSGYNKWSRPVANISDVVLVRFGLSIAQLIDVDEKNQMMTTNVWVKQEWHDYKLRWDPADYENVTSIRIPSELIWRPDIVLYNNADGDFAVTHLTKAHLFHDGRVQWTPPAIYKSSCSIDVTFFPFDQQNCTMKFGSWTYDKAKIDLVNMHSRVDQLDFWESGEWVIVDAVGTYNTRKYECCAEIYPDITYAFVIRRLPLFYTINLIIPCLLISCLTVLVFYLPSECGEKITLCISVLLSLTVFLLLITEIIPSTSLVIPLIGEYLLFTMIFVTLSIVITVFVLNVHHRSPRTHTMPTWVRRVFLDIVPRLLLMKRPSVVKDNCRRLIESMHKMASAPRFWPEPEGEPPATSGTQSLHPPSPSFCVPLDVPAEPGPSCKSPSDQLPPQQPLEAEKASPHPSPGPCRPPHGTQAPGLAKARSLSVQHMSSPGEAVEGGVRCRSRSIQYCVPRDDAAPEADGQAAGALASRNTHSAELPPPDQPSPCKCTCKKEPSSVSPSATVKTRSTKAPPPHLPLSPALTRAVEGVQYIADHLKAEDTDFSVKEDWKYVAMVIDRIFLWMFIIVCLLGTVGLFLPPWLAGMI
T1 sequence (P17787 26-502): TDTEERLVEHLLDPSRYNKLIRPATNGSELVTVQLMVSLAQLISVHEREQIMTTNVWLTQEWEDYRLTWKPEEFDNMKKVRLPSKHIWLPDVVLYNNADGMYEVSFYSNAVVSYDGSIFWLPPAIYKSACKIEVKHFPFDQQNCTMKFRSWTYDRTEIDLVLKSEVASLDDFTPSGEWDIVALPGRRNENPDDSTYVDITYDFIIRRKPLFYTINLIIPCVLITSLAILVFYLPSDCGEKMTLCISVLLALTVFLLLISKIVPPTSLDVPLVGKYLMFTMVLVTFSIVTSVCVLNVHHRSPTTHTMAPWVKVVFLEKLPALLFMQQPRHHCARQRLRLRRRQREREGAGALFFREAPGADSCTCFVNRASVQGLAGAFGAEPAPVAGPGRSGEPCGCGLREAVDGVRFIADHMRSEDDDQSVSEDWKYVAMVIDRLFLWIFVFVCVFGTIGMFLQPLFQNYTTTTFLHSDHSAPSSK

For `Clc1ccc(C2=NCCCN2)cn1` [Compound 2, 2-(6-chloro-3-pyridyl)-1,4,5,6-tetrahydropyrimidine], the EC50 is 3.4 µM. As for `CN1CCN=C1c1ccc(Cl)nc1` [Compound 3, 2-(6-chloro-3-pyridyl)-1-methyl-2-imidazoline], the EC50 was 43.8 µM. As for `Clc1ncc(C2=NCCCN2)s1` [Compound 22, 2-(2-chloro-5-thiazolyl)-1,4,5,6-tetrahydropyrimidine], the “Agonist activity: control % by response at 100 μM of the test compound” value (100 μM test compound, relative to 10 μM acetylcholine (100%)) is listed as “(13.2%)”.
